In US20260048145A1, “COMPOSITIONS AND METHODS FOR TREATING DRUG ADDICTION” (The Children's Medical Center Corporation, priority 2022, published 2026):

Tests used:
[1] = tested on: hM3Dq-expressing Tac2+ neurons; assay: cFos induction after CNO, chemogenetic activation; assay type: in vivo, mice; details: CNO 2 mg/kg i.p.
Procedure: Mice were transcardially perfused with PBS followed by 4% paraformaldehyde. Brains were then placed in a 30% sucrose solution for 2 days. The brains were frozen in Optimal Cutting Temperature (OCT) embedding media and 16 μm (for FISH) or 40 μm (for IF) coronal sections were cut with a vibratome (Leica, no. CM3050 S). For FISH experiments, the slices were mounted on SuperFrost Plus slides, and air dried. The multi-color FISH experiments were performed following the instructions of RNAscope Fluorescent Multiplex Assay (ACD Bioscience). For IF, cryostat sections were collected and incubated overnight with blocking solution (1×PBS containing 5% goat serum, 2.5% BSA, and 0.1% Triton X-100), and then treated with the following primary antibodies, diluted with blocking solution, for 1 day at 4° C.: rabbit anti-cFos (1:2000, Synaptic systems, #226003), chicken anti-GFP (1:2000, Aves Labs, no. GFP-1010), and chicken anti-mCherry (1:2000, Novus Biologicals, no. NBP2-25158). Samples were then washed three times with washing buffer (1×PBS containing 0.1% Triton X-100) and incubated with the Alexa Fluor conjugated secondary antibodies for 2 h at room temperature. The sections were mounted and imaged using a Zeiss LSM800 confocal microscope or an Olympus VS120 Slide Scanning System. […]

[2] = tested on: hM4Di-expressing Tac2+ neurons; assay: cFos induction after CNO following cocaine exposure, chemogenetic inhibition; assay type: in vivo, mice; details: CNO 5 mg/kg i.p.
[3] = tested on: hM3Dq-expressing Tac2+ neurons; assay: Cocaine-CPP with chemogenetic excitation of Tac2+ neurons; assay type: in vivo; details: CNO 2 mg/kg plus cocaine 15 mg/kg; hM3Dq-expressing mice
Procedure: (§1) To this end, a Cre-dependent AAV encoding a modified human M3 muscarinic receptor (hM3Dq) was introduced into NAc of Tac2-Cre mice (FIG. 5E). […] The cocaine-CPP test was then repeated, in which mice were conditioned with cocaine plus CNO in one chamber, while with saline in the other chamber. […] To test the effect of Tac2 neuronal inhibition on cocaine-CPP, a subthreshold cocaine CPP paradigm was applied, in which mice were conditioned with a lower dose of cocaine (10 mg/kg i.p.) in a shorter conditioning session (15-minutes per session)^10,46.
(§2) A two-compartment CPP chamber was used with one compartment with grid rod style floor and the other with mesh style floor (Med Associates). Chamber size is 25×19×17 cm (L×D×H). Mice trajectories were tracked by infra-red photobeam detectors, and the travel distance and the duration the mice spent in the two compartments were recorded. […]
(§3) For hM3Dq chemogenetics experiments, the Tac2-Cre mice were conditioned for two days to saline/saline injections in one chamber in the morning, and CNO (2 mg/kg)/cocaine (15 mg/kg) injection in the other in the afternoon (30 minutes confinement, 6 hours apart). […] The time spent in the cocaine-coupled chambers was recorded, and the CPP scores were calculated by subtracting the time spent in the pre-conditioning phase from the time spent in the post-conditioning phase.

[4] = tested on: hM4Di-expressing Tac2+ neurons; assay: Subthreshold cocaine-CPP with chemogenetic inhibition of Tac2+ neurons; assay type: in vivo, mice; details: CNO 5 mg/kg i.p.; cocaine 10 mg/kg i.p., 15-minutes sessions
Procedure: as §1, §2, §3

[5] = tested on: Tac2+ neurons (hM3Dq / hM4Di); assay: Basal and cocaine-induced locomotion with chemogenetic manipulation of Tac2+ neurons; assay type: in vivo; details: CNO; hM3Dq or hM4Di mice; 1-hour post-treatment
Procedure: The experiment was conducted in an 8-chamber activity monitor system (Med Associates). Each test chamber (ENV-510 boxes) consists of a 27 cm×27 cm square base and 24-cm walls. […] Activity Monitor software (Med Associates) was used to generate trajectory maps. The distance traveled in the arena, and time spent in the center part of the arena, were recorded and analyzed. After each test session, the chambers were cleaned thoroughly with 20% ethanol.
The basal level of locomotion as well as cocaine-induced change of locomotor activity were assessed in the open field arena the same as the OFT. For chemogenetics experiments, 20 minutes after administration of either saline or CNO, mice were individually placed in the center of the test chamber, triggering the infra-red tracking system to record locomotor activity, as measured by the number of beam breaks. […] Different groups of mice were balanced across the 8 chambers to avoid potential environmental bias.

[6] = tested on: hM3Dq-expressing Tac2+ neurons; assay: Cocaine intravenous self-administration (cocaine-IVSA) with chemogenetic excitation; details: CNO 2 mg/kg
[7] = tested on: hM4Di-expressing Tac2+ neurons; assay: Cocaine intravenous self-administration (cocaine-IVSA) with chemogenetic inhibition; details: CNO 5 mg/kg
[8] = tested on: NAc Tac2+ neurons; assay: Single-cell calcium imaging of Tac2+ neurons following acute cocaine injection; assay type: in vivo, mice; details: for recorded Tac2+ neurons showing decreased activity / recorded Tac2+ neurons showing increased activity: cocaine 15 mg/kg i.p.
Text: To explore a potential role for Tac2^+ neurons in drug-related behavior, Tac2 neuronal activity was monitored using single-cell calcium imaging upon psychostimulant drug (cocaine) treatment. To this end, GCaMP6m, which reports calcium fluctuations and serves as a proxy for neuronal activity, was virally delivered into the NAc of Tac2-Cre mice using known techniques^41, and the fluorescence signal was monitored by a skull-attached miniaturized microscope through a gradient-index (GRIN) lens implanted above the virus injection site (FIG. 2B, FIGS. 1C-1D). […] After extracting calcium signal traces and corresponding calcium signal transients of individual neurons from raw imaging video (FIG. 2C, FIG. 1E), the Tac2 neuronal response to saline and cocaine administration was analyzed. The calcium transient frequency from 6 mice (saline: 361 neurons, cocaine 356 neurons) were sorted and presented as heatmaps (FIG. 2D). […] The neuronal activity of cocaine excited/inhibited Tac2^+ neurons in the initial phase were substantially altered following cocaine injection and later partially recovered in the decay phase (FIG. 2I). To further validate these findings, calcium activity traces were analyzed before and after saline or cocaine injection. 3.0-fold more cocaine inhibited neurons than cocaine excited neurons in the initial phase (FIGS. 1F-1H).
Two weeks after GRIN lens implantation surgery, a baseplate was implanted to mount the miniature microscope and to check the fluorescence signal. Freely moving in vivo imaging can be performed after the nVoke microscope (Inscopix) is attached to the fixed baseplate. All recordings were made at 10 frames per second, LED intensities were 0.6˜1.2 mW, and gain (1.5×) was used. The calcium traces were extracted using Inscopix Data Processing Software (version 1.6, Inscopix). The raw recording videos were cropped, spatially down-sampled (2×), spatially filtered (cut-offs: low 0.005 pixel^−1, high 0.500 pixel^−1), and motion-corrected (using a reference frame from the input movie). The spatial location of individual neurons and their associated calcium activity signals were identified using the extended constrained non-negative matrix factorization (CNMF-E) CNMF-c algorithm^53,54 and outputted temporal traces as dF over noise. The identified neurons were manually checked to exclude overlapping neurons, blood vessels, or fluorescent debris moving in and out of focus. The calcium signal traces were further deconvolved using OASIS (online active set method to infer spikes) methods to estimate underlying calcium signal transients. The data matrix containing calcium signal traces and calcium signal transients were subjected to custom MATLAB code for further analysis.
Mice were tested in the homecages and were pre-habituated in the test room and they received 3-day saline injection to reduce stress. On day 1, mice were attached with nVoke microscope 30 minutes before experiment. Prior to injection, 10 minute baseline was recorded, then mice were intraperitoneally injected with saline, and a 10 minute recording was performed after the injection. On day 2, mice were again attached with n Voke microscope, and recorded for 10 minute baseline. Then mice were injected with cocaine (15 mg/kg) intraperitoneally. The post-injection initial phase (0-10 minutes) and decay phase (50-60 minutes) were recorded. Two data sets of neuronal activity were used: calcium signal traces over time or calcium signal transients over time, to analyze treatment (saline or cocaine injection) responsive neurons (excited or inhibited by treatment), 10-minute windows of pre- and post-injection were compared. For saline injection responsive neurons, saline (−10-0 minutes) and saline (0-10 minutes) responses of the two groups were compared. For cocaine injection responsive neurons, the initial phase (0-10 minutes) and the decay phase (50-60 minutes) were compared with the pre-injection phase (−10-0 minutes). […]

[9] = tested on: NAc Tac2+ neurons; assay: Single-cell calcium imaging during cocaine-conditioned place preference; assay type: in vivo, mice; details: post-conditioning
Procedure: Next, the dynamics of Tac2 neuronal activity was analyzed during cocaine reward-contextual association. To this end, single-cell calcium imaging was applied to a cocaine-conditioned place preference (CPP) test (FIG. 3A). In the pre-conditioning session, mice were allowed to freely explore the two chambers with differential contextual patterns while calcium signal being recorded. In the conditioning sessions, mice were given alternate saline and cocaine (15 mg/kg) injections (6 hours apart) and were confined to a specific chamber paired with saline or cocaine. In the post-conditioning session, mice were again allowed to freely explore the two chambers while calcium signal being recorded (FIG. 3A). […] After extracting the calcium signal traces, and corresponding calcium signal transients of individual neurons in pre-conditioning and post-conditioning sessions, signal traces or transient frequencies were compared during the periods when mice are in saline-coupled chamber or cocaine-coupled chamber (staying time>5 seconds). […] To further validate these findings, calcium activity traces were analyzed when mice stayed in the saline chamber or cocaine chamber. […] Moreover, by focusing on the short period around the mice entering the cocaine chamber (−5 seconds to 5 seconds, regarding the entering as 0 second), it was determined that the neuronal activity of the cocaine chamber excited neurons (neurons with […] calcium signal in cocaine chamber) increased rapidly when mice entered the cocaine chamber, while the cocaine chamber inhibited neurons (neurons with […] calcium signal in cocaine chamber) decreased their activity when mice entered the cocaine chamber (FIGS. 3F-3G).
Custom-made two-compartment CPP chambers (50×25×25 cm, L×D×H) were used with visual cues: the floor and the walls of one chamber were decorated with black horizontal stripes and the other chamber was decorated with yellow diagonal stripes. The modified cocaine-CPP consists of three sessions. […] The time spent in different chambers was recorded, the less preferred chamber was assigned as the cocaine chamber and used to condition cocaine injections, while the other chamber was assigned as the saline chamber and used to condition saline injections. […] Finally, the next day following conditioning, in the post-condition recording session, calcium activity of mice was again recorded while freely exploring the two chambers for 15 minutes. The mouse trajectories were recorded using a webcam (Logitech) with top view, and the time when the mice staying or entering chambers was analyzed using Etho Vision XT 11 (Noldus) and was also manually inspected. […]

[10] = after administration; cited from earlier work
[11] = tested on: Tac2 mRNA; assay: Cocaine-CPP after shRNA knock-down of Tac2 in NAc; assay type: in vivo, mice; details: AAV Tac2 shRNA vs control shRNA, bilateral NAc injection
Procedure: Numbers were calculated by summating Tac2^+ cells in serial 3 slides of the NAc region of individual mice (˜Bregma+1.2). […] Mice were subjected to 2-days conditioning, with each morning given saline injection followed by confined to saline-coupled chamber for 30 minutes, and in the afternoon, mice were given cocaine injection followed by confined to cocaine chamber for 30 minutes. Left: time spent in the cocaine-paired chambers pre- and post-conditioning, ****, p<0.0001, paired t-test. Right: the CPP scores were calculated by subtracting the time spent in pre-conditioning phase from the time spent in post-conditioning phase, ns, p=0.0975, unpaired t-test. […] FIGS. 10G-10I show dose-dependent response under cocaine-IVSA of Tac2 knockdown mice. The numbers of lever presses (FIG. 10G). Lever accuracy (FIG. 10H), and numbers of infusions (FIG. 10I) are shown. Data in FIGS. 10B-10I are presented as mean±SEM.
Using calcium recording and neuronal activity manipulation, a causal relationship has been established between Tac2 neuronal activity and cocaine-associated behaviors (CPP and IVSA). It was then explored how Tac2^+ neurons might execute their functions. […]
Small hairpin RNA (shRNA) for mouse Tac2 gene (NM_009312.2) were selected based on previous studies^50. […] The AAV viruses were injected into NAc regions and knock-down efficiency were evaluated by Tac2 RNA FISH.

[12] = decay phase 50-60 minutes, calcium transient frequency
[13] = initial phase 0-10 minutes, calcium transient frequency, 356 neurons, 6 mice

C[N+]1([O-])CCN(C2=Nc3cc(Cl)ccc3Nc3ccccc32)CC1 [CNO, clozapine-N-oxide]
cFos induction in hM3Dq-expressing neurons [1]: resulted in cFos induction
cFos induction in mCherry-expressing (control) neurons [1]: not in the mCherry-expressing neurons
cFos induction in hM4Di-expressing neurons following cocaine exposure [2]: significantly decreased
cocaine-induced CPP [3]: completely abolished
cocaine CPP in hM4Di-expressing vs mCherry-expressing mice [4]: significantly higher
basal locomotion [5]: affected neither basal locomotion
cocaine-induced hyperlocomotion [5]: nor cocaine-induced hyperlocomotion
cocaine infusions, hM3Dq vs mCherry group [6]: fewer cocaine infusions
lever accuracy, hM3Dq vs mCherry group ([6]; 0.33 mg/kg/infusion): reduced lever accuracy
lever presses, hM3Dq vs mCherry group ([6]; cocaine 0.03, 0.1, 0.3, 1 mg/kg/infusion): significantly fewer lever presses
cocaine infusions, hM4Di vs mCherry group [7]: significantly lower number of cocaine infusions
lever presses, hM4Di vs mCherry group [7]: significantly higher number of lever presses
lever accuracy, hM4Di vs mCherry group ([7]; 0.33 mg/kg/infusion): comparable lever accuracy

COC(=O)[C@H]1[C@@H](OC(=O)c2ccccc2)C[C@@H]2CC[C@H]1N2C [cocaine]
initial phase cocaine excited neurons still excited in the decay phase ([8]; 29/49 neurons): 59.2%
initial phase cocaine inhibited neurons still inhibited in the decay phase ([8]; 30/117 neurons): 25.6%
recorded Tac2+ neurons showing decreased activity [8, 12]: 14.9%
recorded Tac2+ neurons showing increased activity [8, 12]: 11.5%
recorded Tac2+ neurons showing decreased activity [8, 13]: 32.9%
recorded Tac2+ neurons showing increased activity [8, 13]: 13.8%
cocaine inhibited neurons compared to cocaine excited neurons ([8]; initial phase, calcium activity traces): 3.0 fold
Tac2+ neurons inhibited by cocaine compared to those excited ([8]; initial phase, calcium transient frequency): 2.4 fold
neurons excited in the cocaine chamber ([9]; calcium activity traces, 40 of 370): 10.8%
neurons inhibited in the cocaine chamber ([9]; calcium activity traces, 59 of 370): 16.0%
Tac2+ neurons with elevated activity in the cocaine chamber ([9]; calcium transient frequency, 16 of 370): 4.3%
Tac2+ neurons with reduced activity in the cocaine chamber ([9]; calcium transient frequency, 62 of 370): 16.8%
decay of cocaine levels in brain and plasma [10]: decay one hour later
time to peak of cocaine levels in brain and plasma [10]: ≤ 10 min

B1: Tac2-shRNA: AAV construct expressing small hairpin RNA for mouse Tac2 gene (SEQ ID NO: 3, 4) (nucleic acid, listed as Mus musculus)
sense: GATCCGCCGCCTCAACCCCATAGCAATTAGAAGCTTGTAATTGCTATGGGGTTGAGGCTTTTTTT
cocaine-induced place preference [11]: neither affected
